We go through four compounds from patent US11648287B2, “Composition for the treatment of intracellular bacterial infection” (priority 2017, dated 2023).

Series [1] has as its system intracellular S. epidermidis in Raw 264.7 cells. In words: Intracellular antimicrobial activity assay. The format is cell-based. The method, then:
After culture S. epidermidis bacteria were pelleted, re-suspended in 1.5 ml of PBS mixed with 0.5 ml of human serum (H1 serum, Cat […], Bio Whittaker, The Netherlands) and incubated for 20 minutes for opsonization. The inoculum was adjusted to 1.8×10^8 CFU/ml with RPMI. Medium of cells was replaced by 40 μl of the bacterial inoculum (bacteria to cell ratio of 40:1) and phagocytosis was allowed to proceed for 45 minutes. […] Raw 264.7 cells were detached by incubation in 100 μl of RPMI containing 0.5 mM EDTA. Detached cells were transferred to a vial and lysed with 40 μl of 1% saponine by incubation in a waterbath sonicator for 5 minutes (Transsonic 460, Elma Schmldbaur GmbH, Germany). The sonicate was centrifuged, and the pelleted bacteria were washed repeatedly and re-suspended in PBS before quantitative culture of serial 10-fold dilutions. Intracellular surviving S. epidermidis in Raw 264.7 cells were expressed as numbers of CFU per well. […] After illumination, cells were incubated overnight, lysed before quantitative culture of surviving bacteria.

The subject of series [2] is Raw 264.7 cells. In words: Propidium iodide influx, loss of viability of Raw 264.7 cells. In kind it is cell-based, mouse. The following applies: TPPS2a 0.25 μg/ml + S. epidermidis (40:1); illuminated for 5 minutes. The method, then:
Raw 264.7 cells were seeded in a 96-well plate (polystyrene Nunclon™ clear TC plate, flat bottom, Greiner, The Netherlands) at a concentration of 1×10^5 cells/well and incubated overnight in RPMI at 37° C. in a humidified atmosphere containing 5% CO2 (unless specified otherwise). The cells were subsequently incubated overnight in 200 μl of RPMI containing gentamicin (15.6 to 1000 μg/ml), or incubated for 2 hours in RPMI containing photosensitizer TPPS2a (0.1 to 0.4 μg/ml) (PCI Biotech AS, Norway) which was replaced with refresh RPMI in order to remove unbound TPPS2a before incubation of another 2 hours. Raw 264.7 cells incubated in RPMI all the time were used as controls. […] After illumination, cells were incubated in refresh RPMI for 24 hours. The effect of gentamicin and of TPPS2a on the metabolic activity of Raw 264.7 cells was tested using MTT at 24 hours after incubation or by WST-1 assay directly and at 24 hours after illumination, respectively, according to the manufacturer's instruction (Cell MTT or WST-1 assay kit, Sigma-Aldrich, The Netherlands). […] The influx of propidium iodide was measured to quantify the loss of cell viability directly or at 24 hours after illumination.

In series [3] the test system is zebrafish embryos. Description: Toxicity of vancomycin alone or combined with TPCS2a and illumination for non-infected zebrafish embryos. In kind it is in vivo. The settings on record: vancomycin alone, 0.4 to 6.4 ng per non-infected embryo. Here is the method:
The toxicity of vancomycin (Vanco) alone or combined with TPCS2a and illumination (T) for non-infected zebrafish embryos was examined. Doses of vancomycin (0.4, 1.6 or 6.4 ng per 1 nl of PBS), or combined with 2.5*10^−3 ng TPCS2a per 1 nl of PBS, were injected per embryo. […] The initial group sizes were 27 to 29 embryos.

The test system of series [4] is Staphylococcus aureus. The following applies: vancomycin alone 0.4 ng; 4300 CFU/embryo.
Protocol: To investigate whether PCI enhanced the antimicrobial efficacy of vancomycin against Staphylococcus aureus infection, S. aureus-infected zebrafish embryos were treated with vancomycin alone (0.4 ng) or combined with TPCS2a (2.5*10^−3 ng). PBS mock treatment was used as control. After injections, zebrafish embryos were maintained group-wise in petri-dishes containing E3 medium. The petri-dishes were placed on the Lumisource illumination device and embryos were illuminated for 10 minutes. Initial group sizes were 29 or 30 embryos. The difference between survival of the vancomycin alone group and the vancomycin-TPCS2a/illumination group was analyzed using Log-rank test, *p≤0.033.
Series [5] concerns Raw 264.7 cells. In words: MTT metabolic activity of Raw 264.7 cells (gentamicin cytotoxicity). The format is cell-based, mouse. The following applies: after incubation of 24 hours. The method, then: Raw 264.7 cells were seeded in a 96-well plate (polystyrene Nunclon™ clear TC plate, flat bottom, Greiner, The Netherlands) at a concentration of 1×10^5 cells/well and incubated overnight in RPMI at 37° C. in a humidified atmosphere containing 5% CO2 (unless specified otherwise). The cells were subsequently incubated overnight in 200 μl of RPMI containing gentamicin (15.6 to 1000 μg/ml), or incubated for 2 hours in RPMI containing photosensitizer TPPS2a (0.1 to 0.4 μg/ml) (PCI Biotech AS, Norway) which was replaced with refresh RPMI in order to remove unbound TPPS2a before incubation of another 2 hours. Raw 264.7 cells incubated in RPMI all the time were used as controls. The cells were protected from light using aluminium foil apart from illumination of 15 minutes using LumiSource (PCI Biotech AS, Norway). After illumination, cells were incubated in refresh RPMI for 24 hours. The effect of gentamicin and of TPPS2a on the metabolic activity of Raw 264.7 cells was tested using MTT at 24 hours after incubation or by WST-1 assay directly and at 24 hours after illumination, respectively, according to the manufacturer's instruction (Cell MTT or WST-1 assay kit, Sigma-Aldrich, The Netherlands). […] The influx of propidium iodide was measured to quantify the loss of cell viability directly or at 24 hours after illumination.

Series [6] concerns S aureus ATCC 49230. In words: Treatment of S. aureus-infected zebrafish embryos with gentamicin alone or combined with TPCS2a. The format is in vivo. The settings on record: 0.4, 0.1 or 0.05 ng gentamicin, without or with 2.5*10^−3 ng TPCS2a; illumination 10 minutes. Here is the method: (§1) Injection into the blood circulation of zebrafish embryos via either the blood island or the duct of Cuvier (Benard et al., 2012, Journal of visualized experiments: JoVE, 61) was performed following the injection procedure described earlier (Zhang et al., 2017, supra). The volume of liquid per injection was adjusted to 1 nl for all injections in the present study.
Wild type zebrafish embryos were intravenously injected with a suitable dose of S aureus ATCC 49230 via the blood island at 30 hpf, and randomly divided into groups for different treatments. At 32 hpf 1 nl of PBS solution containing gentamicin alone (0.05, 0.1 or 0.4 μg/ml) or combined with 0.25 μg/ml TPCS2a (to provide 2.5×10^−3 ng) was intravenously injected. Control embryos received PBS injections. The embryos were protected from light using aluminium foil apart from illumination of 10 minutes, at 34 hpf, and separately maintained in E3 medium, which was refreshed daily. Survival was monitored until 6 dpi.

Series [7] concerns S. epidermidis strain O-47. Description: MIC and MBC of gentamicin for S. epidermidis in RPMI. The format is cell-based. The following applies: S. epidermidis O-47; RPMI medium supplemented with 5% fetal calf serum. The text has this:
An “antibacterial agent” is an entity (e.g. a molecule) which has the ability to kill, damage or prevent the replication of selected bacteria under in vitro conditions, e.g. when in direct contact under culture conditions. The bacteria are preferably as described herein. (As referred to herein bacteria are referred to in both the singular and plural. In particular they are referred to in the singular when defining the type of bacteria to be targeted (i.e. the type, e.g. species, applicable to each bacterium) and in the plural when referring to the treatment to which they may be subjected (i.e. treatment of multiple microorganisms).) In particular, the antibacterial activity is assessed by determining the MIC or MBC value against one or more bacteria, e.g. against a Staphylococcus bacteria. Antibacterial activity may be determined by reference to the MIC value, minimum inhibition concentration (MIC), which is defined as the minimum concentration of an antimicrobial agent that inhibits visible growth of micro-organisms in specified liquid media after overnight incubation. Alternatively antibacterial activity may be determined by the minimum bactericidal concentration (MBC) which is the minimum concentration that kills 99.9% of the bacteria during this incubation period. […]

Series [8] concerns zebrafish embryos. Description: Toxicity test of gentamicin alone or combined with TPCS2a in zebrafish embryos. The settings on record: for toxicity to zebrafish embryos (survival): graded doses injected per embryo; for maximal non-toxic concentrations: injection at 32 hpf, illumination 10 minutes, survival until 6 dpi. The format is in vivo. The method, then:
as §1
Toxicity test of gentamicin alone or combined with TPCS2a in zebrafish embryos Gentamicin or TPCS2a solution (both in PBS) or mixtures were injected into WT zebrafish embryos at 32 hours post fertilization (hpf). PBS was injected into control embryos. The embryos were protected from light using aluminium foil apart from illumination for 10 minutes using LumiSource, at 34 hpf. Survival of embryos (heartbeat, movement) was monitored daily until 6 dpi.

With `O=S(=O)(O)c1ccc(-c2c3nc(c(-c4ccccc4)c4ccc([nH]4)c(-c4ccccc4)c4nc(c(-c5ccc(S(=O)(=O)O)cc5)c5ccc2[nH]5)C=C4)C=C3)cc1` [TPPS2a, tetraphenyl porphyrin disulphonate], in series [1] (TPPS2a only 0.25 μg/ml, with illumination), the “intracellular survival of S. epidermidis vs non-treated illuminated group” value is reported as “did not affect intracellular survival of S. epidermidis”. Besides, the “reduction of cell viability (influx of propidium iodide)” value in series [2] is on record as “not statistically different from the control group”.
On to `CN[C@H](CC(C)C)C(=O)N[C@H]1C(=O)N[C@@H](CC(N)=O)C(=O)N[C@H]2C(=O)N[C@H]3C(=O)N[C@H](C(=O)N[C@H](C(=O)O)c4cc(O)cc(O)c4-c4cc3ccc4O)[C@H](O)c3ccc(c(Cl)c3)Oc3cc2cc(c3O[C@@H]2O[C@H](CO)[C@@H](O)[C@H](O)[C@H]2O[C@H]2C[C@](C)(N)[C@H](O)[C@H](C)O2)Oc2ccc(cc2Cl)[C@H]1O` [vancomycin], for which the “toxicity to zebrafish embryos” value in series [3] was “dose-dependent toxicity”. The “survival of S. aureus-infected embryos” value in series [4] was “had no effect on the survival of the infected embryos”.
Turning to gentamicin, in series [1] (gentamicin only 1, 10 or 30 μg/ml, regardless of time of illumination), the “killing of intracellular S. epidermidis” value was “did not kill intracellular S. epidermidis”. Further, the “effect of PCI on the efficacy of gentamicin” value in series [1] (lowest dose of gentamicin, with PCI, in vitro) is listed as “no effect of PCI”. Besides, in series [5], the “extracellular concentrations that did not reduce the metabolic activity of Raw 264.7 cells” value was “up to 250 μg/ml”. Besides, in series [6], the “survival of S. aureus-infected embryos compared to PBS mock treatment” value is recorded as “significantly improved the survival”. In series [7], the minimal bactericidal concentration is 0.33 µg/mL and the minimal inhibitory concentration came out at 0.04 µg/mL. Besides, in series [8], the “toxicity to zebrafish embryos (survival)” value is “dose-dependent toxicity” and the maximal non-toxic concentrations was 2 ng/embryo.
In the case of “tetraphenyl chlorin disulphonate [TPCS2a]”, in series [8], the “toxicity to zebrafish embryos (survival)” value was “dose-dependent toxicity” and the maximal non-toxic concentrations was 2.5*10^−3 ng/embryo.
